Laboratory results as given in paper PMC8410034, “A variant of ASIC2 mediates sodium retention in nephrotic syndrome” (JCI Insight, 2021).

Tests used:
ASIC2a/t-ASIC2b = molecular target: T1, ASIC2a/t-ASIC2b (Rattus norvegicus, UniProt A0A0G3F2N6+Q62962); assay: two-electrode voltage clamp, X. laevis oocytes; assay type: cell-based
T1 construct: gene Asic2; X. laevis oocytes injected with 3 ng Asic2a + 6 ng Asic2b-type cRNA; t-ASIC2b lacks first 71 N-terminal residues; heterotrimer, stoichiometry unknown (mix with 0, 1 or 2 t-ASIC2b)
T1 sequence (A0A0G3F2N6 1-492): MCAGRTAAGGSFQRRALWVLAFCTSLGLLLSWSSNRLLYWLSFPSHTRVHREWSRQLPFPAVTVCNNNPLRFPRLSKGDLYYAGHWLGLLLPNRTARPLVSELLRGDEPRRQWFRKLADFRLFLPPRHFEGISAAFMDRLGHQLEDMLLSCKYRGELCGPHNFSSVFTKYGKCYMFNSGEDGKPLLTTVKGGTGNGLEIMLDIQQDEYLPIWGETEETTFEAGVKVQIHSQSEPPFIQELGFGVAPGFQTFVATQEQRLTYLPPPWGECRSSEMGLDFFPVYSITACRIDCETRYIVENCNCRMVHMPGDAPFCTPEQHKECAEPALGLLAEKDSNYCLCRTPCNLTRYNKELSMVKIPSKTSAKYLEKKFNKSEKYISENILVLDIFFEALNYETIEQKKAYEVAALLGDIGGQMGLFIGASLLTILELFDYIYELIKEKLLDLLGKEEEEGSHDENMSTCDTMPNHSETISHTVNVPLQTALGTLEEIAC
T1 sequence (Q62962 1-563 isoform Q62962-2): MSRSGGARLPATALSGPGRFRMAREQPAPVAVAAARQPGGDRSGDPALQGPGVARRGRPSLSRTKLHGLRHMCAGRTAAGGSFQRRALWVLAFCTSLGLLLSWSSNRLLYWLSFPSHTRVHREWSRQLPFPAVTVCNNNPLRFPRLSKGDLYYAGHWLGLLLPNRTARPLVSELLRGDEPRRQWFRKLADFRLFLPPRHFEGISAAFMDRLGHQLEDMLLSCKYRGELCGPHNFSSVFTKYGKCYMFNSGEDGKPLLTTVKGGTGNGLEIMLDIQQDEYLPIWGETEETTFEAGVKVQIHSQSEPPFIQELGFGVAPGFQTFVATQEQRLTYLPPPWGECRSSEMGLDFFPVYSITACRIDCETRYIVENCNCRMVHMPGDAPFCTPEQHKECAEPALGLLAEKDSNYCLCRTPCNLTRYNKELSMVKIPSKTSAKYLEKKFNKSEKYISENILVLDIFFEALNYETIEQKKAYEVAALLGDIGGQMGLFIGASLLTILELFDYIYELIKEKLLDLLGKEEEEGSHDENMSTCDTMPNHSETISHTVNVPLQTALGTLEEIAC

ASIC2a = molecular target: T2, ASIC2a (Rattus norvegicus, UniProt Q62962); assay: two-electrode voltage clamp, X. laevis oocytes; assay type: cell-based; conditions: acid-induced (pH 4) plateau current, -70 mV
T2 construct: gene Asic2; full-length, expressed alone in X. laevis oocytes (3 ng cRNA, pGH19); homotrimer
T2 sequence (Q62962 1-512): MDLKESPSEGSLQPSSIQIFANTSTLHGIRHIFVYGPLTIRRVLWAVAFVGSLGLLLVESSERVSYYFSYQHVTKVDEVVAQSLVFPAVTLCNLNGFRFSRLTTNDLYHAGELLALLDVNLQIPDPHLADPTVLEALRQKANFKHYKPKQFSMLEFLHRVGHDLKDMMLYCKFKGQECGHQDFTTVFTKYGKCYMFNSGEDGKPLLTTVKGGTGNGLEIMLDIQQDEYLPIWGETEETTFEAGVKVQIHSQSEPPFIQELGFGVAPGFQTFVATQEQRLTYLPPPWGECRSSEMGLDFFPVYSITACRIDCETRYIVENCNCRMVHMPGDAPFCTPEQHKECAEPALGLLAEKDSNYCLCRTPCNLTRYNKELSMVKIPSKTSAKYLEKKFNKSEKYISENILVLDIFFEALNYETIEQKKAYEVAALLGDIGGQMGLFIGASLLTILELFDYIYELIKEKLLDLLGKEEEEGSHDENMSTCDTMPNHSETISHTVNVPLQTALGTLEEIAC

N=C(N)NC(=O)c1nc(Cl)c(N)nc1N [amiloride]
IC50 (ASIC2a/t-ASIC2b): ~50 µM | % inhibition at 100 μM (ASIC2a): did not alter significantly the apparent low sensitivity of ASIC2a to amiloride
